Tests used:
in vitro = conditions: chlorocebus sabaeus, Vero E6 (Vero C1008) cells
SARS-CoV-2 [1] = test: microbe, parasite or virus in culture; conditions: Severe acute respiratory syndrome coronavirus 2, Vero C1008, 48 h
SARS-CoV-2 [2] = test: microbe, parasite or virus in culture; assay type: functional, organism-based, Chlorocebus sabaeus, Vero C1008; conditions: Severe acute respiratory syndrome coronavirus 2, Vero C1008, 48 h

Structure (SMILES) | CC50 at 48 h (in vitro; CC50) [µM] | CC50 at 48 h (in vitro; pCC50) [µM] | IC50 (SARS-CoV-2 [1]) [µM] | IC50 (SARS-CoV-2 [1]; read-out: pIC50 (converted)) [µM] | IC50 (SARS-CoV-2 [2]; read-out: IC50) [µM] | IC50 (SARS-CoV-2 [2]; read-out: pIC50 (converted)) [µM]
CC(C)[C@H](C(=O)Nc1ccc(C(=O)NO)cc1)c1ccccc1 [AR-42] | 0.851 | 0.851 | > 20 | > 20 | – | –
O=C1CCc2ccc(OCCCCN3CCN(c4cccc(Cl)c4Cl)CC3)cc2N1 [ARIPIPRAZOLE] | 11.4 | 11.2 | – | – | – | –
COc1ccc(CCN2CCC(Nc3nc4ccccc4n3Cc3ccc(F)cc3)CC2)cc1 [ASTEMIZOLE] | 7.5 | 7.41 | – | – | – | –
CC[C@@H]1C(=O)N(C)c2cnc(Nc3ccc(C(=O)NC4CCN(C)CC4)cc3OC)nc2N1C1CCCC1 [BI-2536] | 0.603 | 0.603 | – | – | – | –
CC1(C)S[C@@H]2[C@H](NC(=O)C(C(=O)O)c3ccccc3)C(=O)N2[C@H]1C(=O)O (some centres undefined) [CARBENICILLIN] | > 20 | > 20 | – | – | > 20 | > 20
CO/N=C(\C(=O)N[C@@H]1C(=O)N2C(C(=O)OC(C)OC(C)=O)=C(COC(N)=O)CS[C@H]12)c1ccco1 (some centres undefined) [CEFUROXIME AXETIL] | > 20 | > 20 | – | – | > 20 | > 20
CN(C)CCCN1c2ccccc2CCc2ccc(Cl)cc21 [CLOMIPRAMINE] | 16 | 15.8 | – | – | – | –
O=C1OC2(c3ccc(O)cc3Oc3cc(O)ccc32)c2ccccc21 [FLUORESCEIN] | > 20 | > 20 | – | – | > 0.309 | > 0.309
OCCN1CCN(CCCN2c3ccccc3Sc3ccc(C(F)(F)F)cc32)CC1 [FLUPHENAZINE] | 7.76 | 7.76 | – | – | – | –
CCC(C)n1ncn(-c2ccc(N3CCN(c4ccc(OCC5COC(Cn6cncn6)(c6ccc(Cl)cc6Cl)O5)cc4)CC3)cc2)c1=O (centres undefined) [ITRACONAZOLE] | > 100 | > 100 | > 100 | > 100 | – | –
CCOC(=O)C1=C(C)NC(C)=C(C(=O)OCC)C1c1ccccc1/C=C/C(=O)OC(C)(C)C [LACIDIPINE] | 7.24 | 7.24 | > 10 | > 10 | – | –
CN(C)C(=O)C(CCN1CCC(O)(c2ccc(Cl)cc2)CC1)(c1ccccc1)c1ccccc1 [LOPERAMIDE] | ~22 | ~21.9 | – | – | – | –
CCOC(=O)O[C@]1(C(=O)OCCl)CC[C@H]2[C@@H]3CCC4=CC(=O)C=C[C@]4(C)[C@H]3[C@@H](O)C[C@@]21C [LOTEPREDNOL ETABONATE] | > 20 | > 20 | – | – | > 20 | > 20
CN(C[C@@H]1COCCO1)S(=O)(=O)Nc1ccc2ccc3ncc(-c4cnn(C)c4)cc3c(=O)c2c1 [MK-2461] | – | – | > 20 | > 20 | > 20 | > 20
CC(C)C(=O)OC[C@H]1O[C@@H](n2cc/c(=N\O)[nH]c2=O)[C@H](O)[C@@H]1O [MOLNUPIRAVIR] | – | – | 14.1 | 14.1 | ~4.56 | ~4.57
CCOc1cc2ncc(C#N)c(Nc3ccc(OCc4ccccn4)c(Cl)c3)c2cc1NC(=O)/C=C/CN(C)C [NERATINIB] | > 10 | > 10 | – | – | > 10 | > 10
CC(COc1ccccc1)N(CCCl)Cc1ccccc1 (centres undefined) [PHENOXYBENZAMINE] | – | – | 20 | 20 | > 100 | > 100
CC[C@@H](C(=O)[C@@H](C)[C@@H](O)[C@H](C)[C@@H]1O[C@@H]([C@@H](CC)C(=O)O)CC[C@@H]1C)[C@H]1O[C@]2(C=C[C@@H](O)[C@]3(CC[C@@](C)([C@H]4CC[C@](O)(CC)[C@H](C)O4)O3)O2)[C@H](C)C[C@@H]1C [SALINOMYCIN] | – | – | > 20 | > 20 | 1.29 | 1.29
Nc1ccn([C@@H]2S[C@H](CO)[C@@H](O)[C@@H]2O)c(=O)n1 [THIARABINE] | – | – | > 20 | > 20 | ~12.3 | ~12.3
CSc1ccc2c(c1)N(CCC1CCCCN1C)c1ccccc1S2 (centres undefined) [THIORIDAZINE] | ~6.38 | ~6.31 | – | – | – | –
CCOC(=O)c1c(CSc2ccccc2)n(C)c2cc(Br)c(O)c(CN(C)C)c12 [UMIFENOVIR] | – | – | > 100 | > 100 | > 100 | > 100
CCC1=C[C@@H]2CN(C1)Cc1c([nH]c3ccccc13)[C@@](C(=O)OC)(c1cc3c(cc1OC)N(C)[C@H]1[C@@](O)(C(=O)OC)[C@H](OC(C)=O)[C@]4(CC)C=CCN5CC[C@]31[C@@H]54)C2 [VINORELBINE] | 14.5 | 14.5 | – | – | > 20 | > 20

— ChEMBL document CHEMBL4651402, “Screening of ~5500 FDA-approved drugs and clinical candidates for anti-SARS-CoV-2 activity” (2021)
